Common to all, as to assay type: in vivo
What all share (parameters):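 grade 0 to 5 of growth suppression where 5 is 90% or more and 0 below 10%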

Assay [1] has as its system Monochoria vaginalis (Burm. f.) Presl var. plantaginea (Roxb.) Solms-Laub. The assay can be described thus: Herbicidal effects in paddy field soil treatment (Test Example 1). The settings on record: paddy field soil treatment; 1000 g of the active ingredient per hectare; wettable powder added dropwise on water surface; 21st day after treatment. A digest of the protocol: (§1)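 Application rate 1000 g a.i./ha, delivered as water-diluted wettable powder onto flooded (3 cm) paddy soil one day after sowing. Plants kept in a greenhouse and evaluated for herbicidal effect on day 21 post-treatment.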

Assay [2] relates to Echinochloa oryzicola Vasing. Described as above. The settings on record: paddy field soil treatment; 1000 g of the active ingredient per hectare; wettable powder added dropwise on water surface; 21st day after treatment. An outline of the steps:
as §1

The test system of assay [3] is Scirpus juncoides Roxb. var. ohwianus. T. Koyama. The assay is described as above. The settings on record: paddy field soil treatment; 1000 g of the active ingredient per hectare; wettable powder added dropwise on water surface; 21st day after treatment. An outline of the steps: as §1
Assay [4] concerns Abutilon theophrasti medicus. The assay can be described thus: Herbicidal effects in upland field foliar treatment (Test Example 3). The settings on record: criteria of Table 138; for herbicidal effect (index) on Abutilon theophrasti medicus: 1000 g active ingredient per hectare, 14th day after treatment; for herbicidal effects on Abutilon theophrasti medicus: 1000 g of the active ingredient per hectare, 14th day after the treatment, wettable powder. An outline of the steps:
(§2)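 Foliar spray of diluted wettable powder, 1000 g a.i./ha in 1000 L/ha, onto two-week-old greenhouse-grown seedlings in upland field soil. Plants kept in the greenhouse, with effect rated on a criteria scale at day 14.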

Assay [5] concerns Amaranthus viridis L. The description is as above. The settings on record: criteria of Table 138; for herbicidal effect (index) on Amaranthus viridis L.: 1000 g active ingredient per hectare, 14th day after treatment; for herbicidal effects on Amaranthus viridis L.: 1000 g of the active ingredient per hectare, 14th day after the treatment, wettable powder. A digest of the protocol:
as §2

The subject of assay [6] is Echinochloa crus-galli (L.) P. Beauv. var. crus-galli. The assay is described as above. The settings on record: criteria of Table 138; for herbicidal effect (index) on Echinochloa crus-galli (L.) P. Beauv. var. crus-galli: 1000 g active ingredient per hectare, 14th day after treatment; for herbicidal effects on Echinochloa crus-galli (L.) P. Beauv. var. crus-galli: 1000 g of the active ingredient per hectare, 14th day after the treatment, wettable powder. An outline of the steps: as §2

Assay [7] has as its system Abutilon theophrasti medicus. The assay can be described thus: Herbicidal effects in upland field soil treatment (Test Example 2). The settings on record: 1000 g active ingredient per hectare, 21st day after treatment, criteria of Table 138. An outline of the steps: (§3)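 Herbicidal effect graded 21 days after treatment, plants kept in greenhouse. Treatment was a soil-surface spray of wettable powder in water, 1000 g a.i./ha in 1000 L/ha, applied after sowing and covering seeds.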

The subject of assay [8] is Amaranthus viridis L. Described as above. The settings on record: 1000 g active ingredient per hectare, 21st day after treatment, criteria of Table 138. A digest of the protocol:
as §3

Structures are written as SMILES.

As to `CCCCn1c(=O)c(C(=O)C2=C(O)CCCC2=O)nc2c(Cl)cccc21` [I-364], the “Herbicidal effects index, Monochoria vaginalis (Burm. f.) Presl var. plantaginea (Roxb.) Solms-Laub.” value (“Herbicidal effects index … (Roxb.) Solms-Laub.” for short) in assay [1] was determined as 5. Moreover, the “Herbicidal effects index, Echinochloa oryzicola Vasing” value in assay [2] was 4. Further, the “Herbicidal effects index, Scirpus juncoides Roxb. var. ohwianus. T. Koyama” value in assay [3] stood at 5. Besides, the “herbicidal effect (index) on Abutilon theophrasti medicus” value in assay [4] and in assay [7] was 5 in each case. In addition, the “herbicidal effect (index) on Amaranthus viridis L.” value with Amaranthus viridis L. [5] and with Amaranthus viridis L. [8] was 5 throughout. The “herbicidal effect (index) on Echinochloa crus-galli (L.) P. Beauv. var. crus-galli” value in assay [6] is given as 5.
Turning to `O=C1CCCC(O)=C1C(=O)c1nc2ccccc2n(-c2ccon2)c1=O` [I-144], in assay [1], the “Herbicidal effects index … (Roxb.) Solms-Laub.” value was determined as 5. In addition, the “Herbicidal effects index, Echinochloa oryzicola Vasing” value in assay [2] is on record as 5. The “Herbicidal effects index, Scirpus juncoides Roxb. var. ohwianus. T. Koyama” value in assay [3] is on record as 5. The “herbicidal effect (index) on Abutilon theophrasti medicus” value in assay [4] and in assay [7] was 5 throughout. Further, the “herbicidal effect (index) on Amaranthus viridis L.” value with Amaranthus viridis L. [5] and in the assay on Amaranthus viridis L. [8] was 5 throughout. In assay [6], the “herbicidal effect (index) on Echinochloa crus-galli (L.) P. Beauv. var. crus-galli” value is 5.
As for `COCCOCn1c(=O)c(C(=O)C2=C(O)CCCC2=O)nc2ccccc21` [I-58], the “Herbicidal effects index … (Roxb.) Solms-Laub.” value in assay [1] amounted to 5. Moreover, the “Herbicidal effects index, Echinochloa oryzicola Vasing” value in assay [2] came to 5. For the same compound, the “Herbicidal effects index, Scirpus juncoides Roxb. var. ohwianus. T. Koyama” value in assay [3] worked out at 5. In addition, the “herbicidal effect (index) on Abutilon theophrasti medicus” value in assay [4] and in assay [7] was 5 throughout. The “herbicidal effect (index) on Amaranthus viridis L.” value in the assay on Amaranthus viridis L. [5] and with Amaranthus viridis L. [8] was 5 each time. The “herbicidal effect (index) on Echinochloa crus-galli (L.) P. Beauv. var. crus-galli” value in assay [6] is 5.
For the compound `Cc1cccc(-n2c(=O)c(C(=O)C3=C(O)CCCC3=O)nc3cccnc32)c1` [IV-20], in assay [1], the “Herbicidal effects index … (Roxb.) Solms-Laub.” value is recorded as 5. Moreover, in assay [2], the “Herbicidal effects index, Echinochloa oryzicola Vasing” value turned out to be 5. Moreover, the “Herbicidal effects index, Scirpus juncoides Roxb. var. ohwianus. T. Koyama” value in assay [3] turned out to be 5. Moreover, the “herbicidal effects on Abutilon theophrasti medicus” value in assay [4] was determined as 5. In addition, the “herbicidal effects on Amaranthus viridis L.” value with Amaranthus viridis L. [5] is recorded as 5. Besides, in assay [6], the “herbicidal effects on Echinochloa crus-galli (L.) P. Beauv. var. crus-galli” value was 5. The “herbicidal effect (index) on Abutilon theophrasti medicus” value in assay [7] was determined as 5. In addition, in the assay with Amaranthus viridis L. [8], the “herbicidal effect (index) on Amaranthus viridis L.” value is given as 5.
As to `O=C1CCCC(O)=C1C(=O)c1nc2ccccc2n(-c2ccc(Br)cn2)c1=O` [I-271], the “Herbicidal effects index … (Roxb.) Solms-Laub.” value in assay [1] is on record as 5. For the same compound, in assay [2], the “Herbicidal effects index, Echinochloa oryzicola Vasing” value is 5. Besides, the “Herbicidal effects index, Scirpus juncoides Roxb. var. ohwianus. T. Koyama” value in assay [3] is recorded as 5. Moreover, the “herbicidal effect (index) on Abutilon theophrasti medicus” value in assay [4] and in assay [7] was 5 in each case. The “herbicidal effect (index) on Amaranthus viridis L.” value with Amaranthus viridis L. [5] and in the assay with Amaranthus viridis L. [8] was 5 each time. For the same compound, the “herbicidal effect (index) on Echinochloa crus-galli (L.) P. Beauv. var. crus-galli” value in assay [6] is 5.
With `COc1ccc(-n2c(=O)c(C(=O)C3=C(O)CCCC3=O)nc3cccc(F)c32)cc1` [II-189], the “Herbicidal effects index … (Roxb.) Solms-Laub.” value in assay [1] was 5. The “Herbicidal effects index, Echinochloa oryzicola Vasing” value in assay [2] was 5. For the same compound, in assay [3], the “Herbicidal effects index, Scirpus juncoides Roxb. var. ohwianus. T. Koyama” value is given as 5. The “herbicidal effects on Abutilon theophrasti medicus” value in assay [4] was 5. The “herbicidal effects on Amaranthus viridis L.” value with Amaranthus viridis L. [5] is reported as 5. For the same compound, the “herbicidal effects on Echinochloa crus-galli (L.) P. Beauv. var. crus-galli” value in assay [6] is recorded as 5. The “herbicidal effect (index) on Abutilon theophrasti medicus” value in assay [7] amounted to 5. The “herbicidal effect (index) on Amaranthus viridis L.” value in the assay on Amaranthus viridis L. [8] is given as 5.
